# From patent publication US20260182569A1, “SMART BIOSTIMULANT DELIVERY FOR PLANT GROWTH AND DEVELOPMENT” (King Abdullah University of Science and Technology, priority 2022, published 2026)
# Key:
# [1] = Thermal stability in amino acid media, PBS and HEPES, 45° C. for 24 hours (UV-vis); type: physicochemical; settings: amino acid and buffer (PBS, HEPES) solutions
# Excerpt: Organic matter is combined with more than 90% of the nitrogen sources present in the soil, with 20%-40% of this ratio in amino form. The amino acid (AA) composition of soil organic matter depends on several factors, for instance, pH, plant interaction with other microorganisms, environmental factors (e.g., temperature and CO2 levels), and chemical and nutrient composition. Thus, considering the complexity of using soil as substrates for plants as well as the mechanisms that these undergo during their growth stages, it is important to develop more resistant materials that remain stable under certain conditions. To test the stability of ZIF-8@MiZax-3, it was dissolved in a series of AA media and incubated it at 45° C. for 24 hours. Additionally, PBS and HEPES solutions were utilized to assess the thermal stability in biological and physiological conditions.
# A set of samples were prepared as follows: Aspartic acid (5 mM), Glutamine (5 mM), Histidine (5 mM), PBS (1×), Asparagine (5 mM), Glutamic acid (5 mM), Alanine (5 mM), HEPES (10 mM), Mixture of amino acids (5 mM) all in 5 mL of PBS and 1 drop of ethanol. Subsequently, the samples were vortexed for 10 seconds and incubated at 45° C. for 24 hours. […]
# A decrease in intensity around 283 nm wavelength and remarkable shifts in the absorbance maxima of MiZax-3 were readily observed after the incubation period. […]
# 3T3 cells = test: Cytotoxicity analysis, live-dead viability and CCK-8 assays; type: cell-based; settings: viability after 24 hours
# Excerpt: FIG. 10A illustrates a cytotoxicity analysis of precursor molecules, including Zn(NO3)2, 2-MIm, and MiZax-3, according to some embodiments. FIG. 10B illustrates a cytotoxicity analysis of ZIF-8 and ZIF-8@MiZax-3 complexes, according to some embodiments. Assessing the safety of this synthetic platform is critical. Accordingly, it is important to check if any of the materials or degraded building blocks are transferred from the rhizosphere to the actual fruit. For cytotoxicity analysis, live-dead viability and cell counting kit-8 (CCK-8) assays were performed according to the manufacturer's protocol. Briefly, 3T3 cells (1×10^4 cells per well) were seeded onto a 96-well plate. After 24 hours, cells were incubated with different concentrations (0.1, 0.5, 1, 5, 10, and 50 μg/mL) of ZIF-8 and ZIF-8 loaded with MiZax-3. In addition, to evaluate the cytotoxicity of the particles after degradation at low pH, 3T3 cells were incubated with Zn(NO3)2 and 2-MIm at concentrations of (0.01, 0.05, 0.1, 0.5, 1, 5, 10, and 50 μg/mL) and with MiZax-3 at (0.01, 0.05, 0.1, 0.5, 1, 5, 10, and 50 ng/mL). The cell viability was measured after 24 hours.
# pepper fruits = test: LC-MS analysis of pepper fruits from field trial for MiZax-3; type: in vivo
# [2] = system: Capsicum (C. annuum L. var. California Wonder); test: Capsicum field trial, growth and yield; type: in vivo
# Protocol: FIG. 10C illustrates a schematic representation of the final product utilized for soil treatment, according to some embodiments. The final products included ZIF-8, MiZax-3, and ZIF-8@MiZax-3. These products were added to the sand/soil for the field experiment. FIG. 10D illustrates pictures of a field experiment utilizing ZIF-8@MiZax-3, according to some embodiments. Capsicum (C. annuum L. var. California Wonder) seedlings used for the field trial were initially germinated in soil and grown until the 4-week-old stage in a greenhouse under a semi-controlled environment adjusted to 28° C. (day)/26° C. (night) temperature, under 12 hours-light photoperiod with 60% humidity for nursery. During the nursery period, seedlings were given Hoagland solution to boost their growth before transferring to the field. The uniformly selected seedlings were transferred to the field during the winter season. The field used for the capsicum trial for testing ZIF-8, MiZax-3, and ZIF-8@MiZax-3 was divided into plots and treatments were allocated by following randomized complete block design (RCBD) with three replications as previously described. Each plot size was around 2 m×1.2 m with a planting distance of 50 cm×60 cm (8 plants/plot). After a week of acclimation, the first soil treatments were completed by mixing ZIF-8 (˜33.3 mg/L soil), MiZax-3 (˜1.38 mg/L soil), and ZIF-8@MiZax-3 (˜33.3 mg/L soil) directly on top of each plant stem on the soil surface. The treatments were repeated twice with a month gap in between. Plants were watered with a drip irrigation system twice a day, with an average of half a liter of water per individual. Plant phenotyping data were collected until 13 weeks after transplanting (13WAT) stage to the field. FIG. 11B illustrates a graph of the number of buds per individual at 4WAT, according to some embodiments. […] Two consecutive harvests were completed to compare the total fresh fruit yield harvested per total number of plants (n=24) between treatments and mock. The ZIF-8, MiZax-3 and ZIF-8@MiZax-3 treatments enhanced the total yield by 26.37%, 31.76% and 35.11%, respectively. […] In addition, zinc fertilizers can alter the microbial communities in the rhizosphere, which promotes plant growth and eventually increases yield.
# [3] = fresh fruit, total number of plants n=24
compound,measurement,setting,value
"COc1ccc(Oc2cccc(/C=C/C(C)=O)c2)cc1 [MiZax-3, (E)-4-(3-(4-methoxyphenoxy)phenyl) but-3-en-2-one]",Shift of UV-vis absorption after thermal incubation,[1],significant wavelength shifts up to 332 nm
same,Concentration up to which high biocompatibility was exhibited,3T3 cells,up to 50 ng/ml
same,MiZax-3 in pepper fruits of treated plants,pepper fruits,no detectible MiZax-3
same,Number of flower buds per individual,[2]; 4WAT,significantly higher number of flower buds compared to the mock and ZIF-8 treated seedlings
same,Plant height,[2]; 4WAT,significantly taller than mock and ZIF-8 treated plants
same,Average dry shoot biomass per individual plant,"[2]; 13WAT, compared to mock, no statistically significant difference",upwards trend
same,Plant health (appearance),"[2]; 13WAT, versus mock",healthier than the mock plants
same,Average Total Fruit Number,"[2]; capsicum field trial, soil treatment",53.17
same,Harvest-1,[2]; [3],4464.8 g
same,Harvest-2,[2]; [3],5423.8 g
same,Yield Enhancement,[2]; total yield versus mock,31.76%
same,Total Yield,"[2]; two harvests, total number of plants n=24",9888.6 g
